Consider one molecule from paper PMC3605511, “Tumor P-Glycoprotein Correlates with Efficacy of PF-3758309 in in vitro and in vivo Models of Colorectal Cancer” (Frontiers in Pharmacology, 2013).

The test system of one series is SW948. As to the kind of experiment: Cell proliferation assay, SW948. Format: cell-based. The note with it: Homo sapiens; SW948, 72 h, SRB assay. How it is done: (§1) Cytotoxic/proliferation effects were determined using the sulforhodamine B (SRB) assay (Skehan et al., [1990]) or by resazurin. Briefly, cells in logarithmic growth phase were transferred to 96 well flat bottom plates with lids. One-hundred microliter cell suspensions containing 1500–5000 viable cells were plated into each well and incubated overnight prior to exposure with increasing concentrations of PF-309 for 3–5 days, dependent upon cell type. Media was removed and cells were fixed with cold 10% trichloroacetic acid for 30 min at 4°C. Cells were then washed with water and stained with 0.4% SRB (Fisher Sci., Pittsburgh, PA, USA) for 30 min at room temperature, washed again with 1% acetic acid, followed by stain solubilization with 10 mM tris at room temperature. The plate was then read on a plate reader (Biotek Synergy 2, Winooski, VT, USA) set at an absorbance wavelength of 565 nm. Cell proliferation curves were derived from the raw absorbance (OD) data.
(§2) Since PF-309 appeared to be a strong P-gp and BCRP substrates, we sought to evaluate if the transporters influenced sensitivity in vitro. We evaluated the sensitivity of CRC cell lines to PF-309 treatment in a panel of 27 lines. Cells were exposed to PF-309 at a range of concentrations for 72 h and cell content measured by SRB assay (see Pitts et al., [2013]). […]

For another series, the system named is SW1463. As to the kind of experiment: Cell proliferation assay, SW1463. Format: cell-based. The note with it: Homo sapiens; SW1463, PF-309 alone, 72 h; 1 uM was the maximum concentration used. The procedure: as §1, §2
The subject of the next series is GEO. As to the kind of experiment: Cell proliferation assay, GEO. Format: cell-based. The note with it: Homo sapiens, 72 h, SRB assay. The procedure:
as §1, §2

The next series deals with Caco-2. As to the kind of experiment: Cell proliferation assay, Caco-2. Format: cell-based. The conditions noted are these: Homo sapiens. The procedure:
as §1, §2

For another series, the system named is SW620. As to the kind of experiment: Cell proliferation assay, SW620. Format: cell-based. The note with it: Homo sapiens, SW-620; SW620, 72 h, SRB assay. How it is done:
as §1, §2

For the next series, the system named is COLO205. The experiment in a line: Cell proliferation assay, COLO205. Format: cell-based. The conditions noted are these: Homo sapiens, COLO 205; COLO205, 72 h, SRB assay. How it is done: as §1, §2
Another series has as its system DLD1 PgP_KD1. As to the kind of experiment: Proliferation after shRNA knockdown of P-gp, DLD1 PgP_KD1. Format: cell-based. The conditions noted are these: Homo sapiens, DLD-1; DLD1 PgP_KD1:50, P-gp shRNA knockdown. How it is done:
as §1
The pGIPZ Pgp-specific shRNA expression cassettes, along with control shRNA plasmids including the original pGIPZ vector were purchased from Open Biosystems (Birmingham, AL, USA). […] Successful knockdown of specific genes and gene products was confirmed by semi-quantitative RT-PCR and immunoblotting with specific antibodies. […]

A further series deals with GEO cell line xenograft. As to the kind of experiment: CRC cell line xenograft efficacy, GEO. Format: in vivo, mice. The conditions noted are these: 25 mg/kg orally twice daily, 14–28 days, end of study tumor volumes. How it is done: For cell line xenografts, CRC cells were harvested in exponential phase growth and resuspended in a 1:1 mixture of serum-free RPMI 1640 and Matrigel (BD Biosciences). Five to ten million cells per mouse were injected subcutaneously into the flank using a 23-gauge needle. Mice were monitored daily for signs of toxicity and were weighed twice weekly. Tumor size was evaluated twice per week by caliper measurements using the following formula: tumor volume = length × width^2 × 0.52. When tumors reached 200–300 mm^3 mice were randomized into two groups with at least 10 tumors per group. Mice were then treated for 14–28 days (until control tumor volume reach ∼1500 mm^3) with either vehicle control (0.5% methylcellulose), or PF-3758309 (25 mg/kg) twice daily by oral gavage.
Human tumor xenograft models were used to evaluate the efficacy of PF-309 in vivo. Eleven different CRC cell line tumor xenografts were treated with 25 mg/kg PF-309 twice daily by oral gavage for 14–28 days (until control tumor volumes reached ∼1500 mm^3). Tumor volumes were measured throughout the study and the % growth inhibition was calculated from the average end of study tumor volumes by:
% Growth Inhibition= (average control volume−average treated volume)/average control volume×100%

The test system of another series is CUCRC042 CRC PDTX model. As to the kind of experiment: Patient derived tumor xenograft efficacy, CUCRC042. The note with it: 25 mg/kg orally twice daily, 22–56 days, end of study tumor volumes. Format: in vivo, mice. The procedure:
(§3) For patient tumor xenografts, surgical specimens of patients undergoing either removal of a primary or metastatic tumor at the University of Colorado Hospital are implanted subcutaneously into five mice for each patient with a 10-G trochar. After a subsequent growth and passage in mice, tumors are excised, and expanded into cohorts for treatment (n = 6–15 per group). Mice were treated with PF-309 or vehicle (0.5% methylcellulose) for 22–56 days (until control tumor volume reach ∼1500 mm^3) twice daily (BID) by oral gavage (PO). Monitoring of mice and measurements of tumors were conducted as described above. % Growth Inhibition= (average control volume−average treated volume)/average control volume×100% In addition to the cell line xenografts, we also treated 12 different patient derived tumor xenograft (PDTX) CRC models with PF-309 (Figure 6). We were unable to assess how ABCB1 gene expression correlated with efficacy in these models. The PDTX models are propagated in vivo, are not immortalized, and are not grown in in vitro culture. […] Tumor and plasma sample pairs were collected from animals at the end of study for eight tumor models (three cell line xenografts and five PDTX models) and concentrations of PF-309 were measured. […]

The next series deals with CUCRC036 CRC PDTX model. The experiment in a line: Patient derived tumor xenograft efficacy, CUCRC036. Format: in vivo, mice. The conditions noted are these: 25 mg/kg orally twice daily, 22–56 days, end of study tumor volumes. How it is done: as §3
The next series concerns CUCRC006 CRC PDTX model. As to the kind of experiment: Patient derived tumor xenograft efficacy, CUCRC006. Format: in vivo, mice. The conditions noted are these: 25 mg/kg orally twice daily, 22–56 days, end of study tumor volumes. The procedure:
as §3

The nature of series [1]: End of study tumor and plasma concentrations (LC/MS/MS). Format: in vivo. The note with it: mice, trough (6–8 h).

Like-named read-outs stand apart in the source and are kept apart here.

For `Cc1nc(Nc2n[nH]c3c2CN(C(=O)N[C@H](CN(C)C)c2ccccc2)C3(C)C)c2sccc2n1` [PF-309], the IC50 in the series with SW948 is over 1000 nM; with SW1463, over 1000 nM; in the series with GEO, over 1000 nM; with Caco-2 (Caco-2, CACO2, 72 h, SRB assay, read-out: IC50) it was over 1000 nM; with Caco-2 (Caco-2, PF-309 alone, 72 h, read-out: PF-309 IC50), 300 nM; in the series with SW620, 5 ± 3.1 nM. The values for the IC50 with COLO205 and with DLD1 PgP_KD1 were 4.2 ± 1.4 nM and 26 nM, respectively. Further, the “% Growth inhibition” value is recorded as 42% in the series with GEO cell line xenograft, 52% with CUCRC042 CRC PDTX model, 35% in the series with CUCRC036 CRC PDTX model and 32% in the series on CUCRC006 CRC PDTX model. Besides, the “total plasma concentrations at the trough” value in series [1] lay in the range of 1 to 10 nM.
